Measurements as given in patent publication US11813070B2, “Apparatus for measuring pressure changes in stomach” (VIPUN Medical NV, priority 2017, dated 2023).
“Also recorded” adds a separate entry of the source.

Experiments:
healthy subjects [1] = assay: Gastric motility measured as intragastric balloon pressure (motility index, MI) after codeine or placebo; assay type: in vivo, human; settings: 60 mg codeine as syrup, single dose, n=6
Text: The example explored the potential of a balloon with the optimal balloon size as determined in examples 1 and the optimal balloon material characteristics as determined in examples 2. More specifically the aim was 3-fold: • To investigate whether the nasogastric balloon catheter can be used to detect (codeine-induced) decreased gastric motility. • To investigate the correlation between gastric motility and gastric emptying changes after codeine treatment. • To investigate whether the presence of an inflated intragastric balloon influences gastric motility and emptying.
6 healthy subjects were recruited for this study. […] Subjects were asked to come to the clinic after at least 6 hours fasting, none of the subjects were taking any medication apart from contraception pills. […]
The 20 ml balloon experiments served as a control for the 200 ml balloon experiments since the effect of a 200 ml balloon on gastric motility and emptying is unknown. Gastric motility was assessed with a double lumen balloon catheter as described below by measuring the pressure in the balloon with an external pressure sensor. […]
Customized computer software (Pharmlab 5.0; AstraZeneca R&D, Mölndal, Sweden) was used to record pressure as mmHg at 1 Hz. […] The baseline was calculated as follows: […]

healthy subjects [2] = assay: Gastric emptying rate by 13C-octanoic acid breath test (GET½) after codeine or placebo; assay type: in vivo, human; settings: inflated balloon (200 ml), 60 mg codeine as syrup, single dose, n=6
Protocol: The study was designed as a randomized crossover study with 4 groups was (see schematic 14): • 20 ml balloon—placebo • 20 ml balloon—codeine • 200 ml balloon—placebo • 200 ml balloon—codeine
The volunteers received either placebo or codeine as a syrup. After positioning the balloon catheter the balloon was filled with 50 ml for 10 minutes, hereafter the balloon was inflated to 200 ml of deflated to 20 ml depending on the treatment arm. After this and in total 20 minutes after syrup ingestion 150 ml of a nutrient drink (Nutridrink, Nutricia (NL)) was directly infused into the stomach at a constant speed of 75 ml/hour. […]
Gastric emptying rate was measured using the ^13C-octanoic acid breath test (11). ^13C-labeled octanoic acid was solved in the nutrient drink (0.5 mg/ml). Emptying of the stomach was assessed by analysis of the exhaled ^13CO2, after oxidation of octanoic acid in the liver. […]
2) Gastric emptying (breath test). The ratio of ^13CO2 to ^12CO2 (molar mass 45 and 44 gr/mol) in the breath samples collected was measured by isotope ratio mass spectrometry (IRMS; ABCA, Sercon, Crewe, UK). As described before (12) a ^13C recovery rate per hour (% dosage per hour) was calculated per sample taking into account that the total dosage ^13C was administered over 2 hours. […]

SMILES: COc1ccc2c3c1O[C@H]1[C@@H](O)C=C[C@H]4[C@@H](C2)N(C)CC[C@@]341 [codeine]
- gastric contractility expressed as motility index (MI), codeine vs. placebo (healthy subjects [1]; deflated balloon (20 ml)): did not significantly affect MI; also recorded: no effect of treatment; also recorded: No effect of codeine on motility could be detected
- gastric contractility expressed as motility index (MI), codeine vs. placebo (healthy subjects [1]; inflated balloon (200 ml)): significant effect on MI (P<0.01); also recorded: motility was always decreased; also recorded: significant treatment effect (P<0.01); also recorded: decreased MI; also recorded: significantly decreased gastric motility
- gastric half emptying time (GET½), codeine vs. placebo (healthy subjects [2]): GET½ increased; also recorded: significant treatment effect (P<0.05); also recorded: increased GET½; also recorded: delayed gastric emptying
- gastric half emptying time (GET½), codeine vs. placebo (healthy subjects [2]; listed as Codeine): delayed gastric emptying
